Laboratory results from paper PMC7087839 (Chemistry of Natural Compounds, 2018).

How the values were obtained:
Assay type in all cases: cell-based
[1] = tested on: Polio virus (strain Type 3, WM-3)
[2] = tested on: SARS corona virus (strain Urbani)
[3] = tested on: Rift Valley fever virus (strain MP-12)
[4] = tested on: Tacaribe virus (strain TRVL-11573)

Compound | antiviral activity against Polio virus (in words) [1] | activity against Sars corona virus (in words) [2] | activity against Rift valley fever virus (in words) [3] | activity against Takaribe virus (in words) [4]
C[C@]12CC[C@H](OC(=O)Cc3ccccc3)C[C@@H]1CC[C@@H]1[C@@H]2CC[C@]2(C)C(=NNC(=O)c3cccc([N+](=O)[O-])c3)CC[C@@H]12 [Compound 4, 3 β -Phenylacetoxy-5α-androstan-17-one m-nitrobenzoylhydrazone] | high | weakly active |  | 
C[C@]12CC[C@H](OC(=O)Cc3ccccc3)C[C@@H]1CC[C@@H]1[C@@H]2CC[C@]2(C)C(=NNC(=O)c3cccnc3)CC[C@@H]12 [Compound 5, 3 β-Phenylacetoxy-5α-androstan-17-one Nicotinoylhydrazone] | moderate | weakly active | weakly active | weak activity
CC(=NNc1ccc([N+](=O)[O-])cc1)C1=CC[C@H]2[C@@H]3CC[C@H]4C[C@@H](O)CC[C@]4(C)[C@H]3CC[C@]12C [Compound 12, 5′-preg-16-en-3β-ol-20-one p-nitrophenylhydrazone] | moderate |  | weakly active | 
